Measured values reported in publication PMC6268609, “Synthesis and Evaluation of New β-Carboline-3-(4-benzylidene)-4H-oxazol-5-one Derivatives as Antitumor Agents” (Molecules, 2012).
Read-outs that look alike come from different tables or passages of the source.

Columns and labels:
breast (MCF-7) = assay: Cytotoxic assay (sulforhodamine B), breast; format: cell-based; conditions: Homo sapiens, MCF7, 48 h
Method: (§1) The synthesized compounds were evaluated in vitro against six human cancer cell lines consisting of glioma (U251), melanoma (UACC-62), breast (MCF-7), prostate (PC-3), ovarian (OVCAR-03) and colon (HT-29). Cell lines were obtained from National Cancer Institute (Frederick, MD, USA). Normal cell line (VERO, renal, green monkey), from the Rio de Janeiro Cell Bank, was also used. Stock cultures were grown in medium containing 5 mL RPMI 1640 (GIBCO BRL) supplemented with 5% fetal bovine serum (FBS, GIBCO), at 37 °C with 5% CO2. Penicillin:streptomycin (1000 μg/L:1000 U/L, 1 mL/L) was added to the experimental cultures. Cells in 96-well plates (100 μL cells well^−1) were exposed to compounds 8–11 in DMSO (concentrations of 0.25, 2.5, 25, and 250 μg·mL^−1) at 37 °C, 5% of CO2 in air for 48 h. […] Afterwards cells were fixed with 50% trichloroacetic acid and cell proliferation determined by spectrophotometric quantification (540 nm) of cellular protein content by using sulforhodamine B assay and doxorubicin as the positive control. Three measurements were obtained: at time zero (To, at the beginning of incubation) and 48 h post-incubation for compound-free (C) and tested (T) cells. Cell proliferation was determined according to the equation 100 × [(T − T0)/C − T0], for T0 < T ≤ C, and 100 × [(T − T0)/T0], for T ≤ T0 and a concentration-response curve for each cell line was plotted using software ORIGIN 8.0® (OriginLab Corporation). Using the concentration–response curve for each cell line, the IC50 values (concentration that produces a 50% reduction in cellular growth when compared to untreated control cells) and IC100 values (concentration that promotes total growth inhibition) were determined through non-linear regression analysis using software ORIGIN 8.0® (OriginLab Corporation). Compounds with IC50 values < 100 μM were considered actives.

glioma (U251) = assay: Cytotoxic assay (sulforhodamine B), glioma; format: cell-based, human; conditions: for IC50: Homo sapiens, U-251, 48 h, sulforhodamine B assay
Method: as §1

melanoma (UACC-62) = assay: Cytotoxic assay (sulforhodamine B), melanoma; format: cell-based, human; conditions: for IC50: Homo sapiens, UACC-62, 48 h, sulforhodamine B assay
Method: as §1

colon (HT-29) = assay: Cytotoxic assay (sulforhodamine B), colon; format: cell-based; conditions: Homo sapiens, 48 h
Method: as §1

[1] = tested on: Normal cell line (VERO, renal, green monkey); assay: Cytotoxic assay (sulforhodamine B), normal cell line; format: cell-based; conditions: Chlorocebus sabaeus, 48 h
Method: as §1

prostate (PC-3) [2] = assay: Cytotoxic assay (sulforhodamine B), prostate; format: cell-based, human; conditions: for IC50: Homo sapiens, 48 h, sulforhodamine B assay
Method: as §1

ovarian (OVCAR-03) [3] = assay: Cytotoxic assay (sulforhodamine B), ovarian; format: cell-based, human; conditions: for IC50: Homo sapiens, 48 h, sulforhodamine B assay
Method: as §1

ovarian (OVCAR-03) [4] = conditions: previous work; cited from earlier work
prostate (PC-3) [5] = conditions: previous work; cited from earlier work

With `O=C1OC(c2cc3c([nH]c4ccccc43)c(-c3ccccc3)n2)=NC1=Cc1cccc([N+](=O)[O-])c1` [Compound 8, 2-(1-Phenyl-9H-β-carbolin-3-yl)-4-(3-nitrobenzylidene)-4H-oxazol-5-one] the IC50 (breast (MCF-7)) was > 100 µM, the IC50 (glioma (U251)) was 62.4 µM and the IC50 (melanoma (UACC-62)) was 7.52 µM. For the same compound, the IC50 (colon (HT-29)) was > 100 µM, the IC50 [1] was > 100 µM and the IC50 (prostate (PC-3) [2]) was > 100 µM. The IC50 (ovarian (OVCAR-03) [3]) was 63.2 µM.

For `COc1cccc2c1C(=O)c1c(O)c3c(c(O)c1C2=O)C[C@@](O)(C(=O)CO)C[C@@H]3O[C@H]1C[C@H](N)[C@H](O)[C@H](C)O1` [Doxorubicin, reference compound], the IC50 (breast (MCF-7)) was 0.06 µM, the IC50 (glioma (U251)) was 0.03 µM and the IC50 (melanoma (UACC-62)) was 0.04 µM. The IC50 (colon (HT-29)) was 0.18 µM, the IC50 [1] was 0.5 µM and the IC50 (prostate (PC-3) [2]) was 0.05 µM. It also gave an IC50 (ovarian (OVCAR-03) [3]) of 0.42 µM.

For `CC(=O)Oc1ccc(-c2nc(C3=NC(=Cc4cccc([N+](=O)[O-])c4)C(=O)O3)cc3c2[nH]c2ccccc23)cc1` [Compound 9, 2-[1-(4-Acetoxyphenyl)-9H-β-carbolin-3-yl]-4-(3-nitrobenzylidene)-4H-oxazol-5-one], the IC50 (breast (MCF-7)) was > 100 µM, the IC50 (glioma (U251)) was 80.2 µM and the IC50 (melanoma (UACC-62)) was 8.76 µM. For the same compound, the IC50 (colon (HT-29)) was > 100 µM, the IC50 [1] was > 100 µM and the IC50 (prostate (PC-3) [2]) was > 100 µM. The IC50 (ovarian (OVCAR-03) [3]) was > 100 µM.

For `COc1ccc(-c2nc(C3=NC(=Cc4ccccc4)C(=O)O3)cc3c2[nH]c2ccccc23)cc1` [Compound 11, 2-[1-(4-Methoxyphenyl)-9H-β-carbolin-3-yl]-4-benzylidene-4H-oxazol-5-one], the IC50 (breast (MCF-7)) was 23.4 µM, the IC50 (glioma (U251)) was 0.48 µM and the “IC100 (concentration that promotes total growth inhibition)” value (glioma (U251); glioma (U251), cytostatic activity) was 15.50 µM. For the same compound, the IC50 (melanoma (UACC-62)) was 10 µM, the “IC100 (concentration that promotes total growth inhibition)” value (melanoma (UACC-62); melanoma (UACC-62), cytostatic activity) was 112.42 µM and the IC50 (colon (HT-29)) was 67.9 µM. The IC50 [1] was 63.2 µM, the IC50 (prostate (PC-3) [2]) was 1.5 µM and the “IC100 (concentration that promotes total growth inhibition)” value (prostate (PC-3) [2]; prostate (PC-3), cytostatic activity) was 64.17 µM. The IC50 (ovarian (OVCAR-03) [3]) was 1.07 µM and the “IC100 (concentration that promotes total growth inhibition)” value (ovarian (OVCAR-03) [3]; ovarian (OVCAR-03), cytostatic activity) was 56.83 µM.

For `COc1ccc(-c2nc(-c3nnc(SC)o3)cc3c2[nH]c2ccccc23)cc1` [1-(4-methoxyphenyl)-3-(2-methylthio-1,3,4-oxadiazol-5-yl) β-carboline], the IC50 (ovarian (OVCAR-03) [4]) is listed as 2.13 µM.

Work on `COc1ccc(-c2nc(C3=NC(=Cc4cccc([N+](=O)[O-])c4)C(=O)O3)cc3c2[nH]c2ccccc23)cc1` [Compound 10, 2-[1-(4-Methoxyphenyl)-9H-β-carbolin-3-yl]-4-(3-nitrobenzylidene)-4H-oxazol-5-one] yielded an IC50 (breast (MCF-7)) of 47.6 µM, an IC50 (glioma (U251)) of 0.35 µM and an IC50 (melanoma (UACC-62)) of 15.9 µM. The IC50 (colon (HT-29)) was > 100 µM, the IC50 [1] was > 100 µM and the IC50 (prostate (PC-3) [2]) was 5.28 µM. For the same compound, the IC50 (ovarian (OVCAR-03) [3]) was 2.18 µM.

In the case of `CN(C)c1ccc(-c2nc(-c3n[nH]c(=S)[nH]3)cc3c2[nH]c2ccccc23)cc1` [1-(4-N,N-dimethylaminophenyl)-3-(5-thioxo-1,2,4-triazol-3-yl)-β-carboline], the IC50 (prostate (PC-3) [5]) is given as 1.37 µM and the IC50 (ovarian (OVCAR-03) [4]) is given as 1.09 µM.

For `O=C(NN=Cc1ccccc1Cl)c1cc2c([nH]c3ccccc32)c(-c2ccc(O)cc2)n1` [N'-(2-chlorobenzylidene)-1-(4-hydroxyphenyl)-β-carboline-3-carbohydrazide], the IC50 (prostate (PC-3) [5]) is given as 1.83 µM and the IC50 (ovarian (OVCAR-03) [4]) is given as 1.65 µM.
